In patent US11975051B1, “Therapeutic peptides and uses thereof” (priority 2022, dated 2024):
Entries after “also recorded” stand apart in the source; their conditions may differ. Like-named read-outs stand apart in the source and are kept apart here. Where a SMILES comes first, the peptide text is derived from it. [ ]: non-standard residue; d: D form.

Legend:
Dog microsomal stability = format: in vitro ADME; conditions: dog microsomes
[1] = system: ALS patient derived adipose stem cells (ASCs); assay: Ionomycin-stressed ALS patient derived adipose stem cells, rescue by test compound (SeaHorse); format: cell-based, human
Description: Adipose stem cells (“ASCs”) derived from fat tissue harvested from an ALS patient were glycolytic showing increased proliferation and lipid accumulation in culture. An in vitro model of mitochondrial dysfunction was initiated with ALS patient derived ASCs grown in growth media. After cells were confluent, the growth media was treated with chemical stressors, such as ionomycin. Ionomycin induces cell death, apoptosis, peroxide formation, extracellular ATP, and peroxynitrites that are related to mitochondrial dysfunction. The media was exchanged and replaced with basic DMEM with 4 mM pyruvate and no additional growth factors. Test compounds were added in an effort to rescue the ionomycin treated cells. After recovery, 6 hours, the cells were measured for viability, apoptosis, peroxides, and peroxynitrites by SeaHorse analysis. The ASC patient derived cells are a good model to investigate dysregulated mitochondrial dysfunction in disease, these effects are not apparent in all ALS patient derived iPSC fibroblast cells (data not shown).

[2] = In vitro comparisons of Elamipretide triacetate and TVALA; conditions: data not shown
Description: TVALA™ may be steroid sparing in diseases that involve innate immunity and autoimmune components that are traditionally treated with steroids. For example, age-related macular degeneration is treated with steroid anti-inflammatory agents. TVALA™ is used as an adjunct to traditional therapies, decreasing or eliminating the need for steroids. Another example is for renal dialysis patients, for which TVALA™ is used as adjunctive or as a replacement to anti-inflammatory therapies. Elamipretide Triacetate is a small, mitochondrially-targeted d-tetrapeptide that is not entirely different from TVALA™, as both have two basic residues (Arg and Lys) and both have a d-Arg. Elamipretide triacetate appears to reduce the production of the toxic reactive oxygen species and stabilize cardiolipin to moderate mitochondrial disease.

[3] = Pharmacokinetics in mice dosed IV, SC and PO; format: in vivo, mouse; conditions: for half-life / bioavailability / AUC(0-inf) / Cmax: mouse, in vivo, mice
[4] = Pharmacokinetics in dog (PO); conditions: in vivo, read-out: % F (PO)
ALS patient-derived ASCs = assay: Stressed ALS patient-derived ASCs treated with peptides, SeaHorse analytics (Example 6); format: cell-based, human
From the text: ALS patient-derived ASCs showing hypermetabolism and lipid sequestration were stressed and treated with peptides (shown below, column 2) and effect of the peptide measured with SeaHorse analytics.

Mouse plasma stability = format: in vitro ADME; conditions: read-out: Mouse Plasma Stability t½
A-375 melanoma cells = assay: Erastin-induced ferroptotic cell death, viability; format: cell-based; conditions: washed
Description: (§1) Melanoma cell lines A-375, A-375 non-target, and A-375 (Prdx6 KO) cells were pre-incubated with TVALA™, washed, and treated with Erastin. Following treatment, the cells were evaluated for viability. […] When the cells were pre-treated with TVALA™, washed, and incubated with TVALA™ followed by treatment with Erastin, the cells were protected against Erastin-induced cell death. When A-375 non target cells or A-375 knock out cells were used there was no effect of pre-treatment followed by TVALA™ treatment as expected (data not shown).

A-375 non-target cells = assay: Erastin-induced ferroptotic cell death, viability; format: cell-based; conditions: pre-treatment followed by TVALA treatment; data not shown
Description: as §1

A-375 (Prdx6 KO) cells = assay: Erastin-induced ferroptotic cell death, viability; format: cell-based; conditions: pre-treatment followed by TVALA treatment; data not shown
Description: as §1

[5] = Pharmacokinetics in rat (IV, SC, PO); conditions: in vivo
[6] = Mouse (liver) microsomal stability; format: in vitro ADME; conditions: for half-life: mouse, liver microsomes
Rat microsomal stability = format: in vitro ADME; conditions: rat microsomes
[7] = system: SOD1^G93A mouse model of ALS; assay: 6-week efficacy testing of TVALA in drinking water in the SOD1^G93A mouse model of ALS; format: in vivo
Description: A 6-week efficacy testing of test article, TVALA™, in daily drinking water, in the SOD1^G93A mouse model of ALS, with neurological scoring, neuroinflammation and axonopathy outcome measures was conducted by orally dosing with 3 mg/kg or 10 mg/kg. In phrenic nerves the axons numbers are not affected at this age, however axons start to atrophy, in femoral nerves, the mice lose axons and the remaining ones are atrophied.

Q: With `CC(C)[C@@H](NC(=O)[C@H](N)Cc1ccc(O)cc1)C(=O)N[C@H](CC(=O)O)C(=O)N[C@H](CCCCN)C(=O)N[C@H](CCCNC(=N)N)C(=O)O` [TVALA™, H-(D-Tyr)-(D-Val)-(D-Asp)-(D-Lys)-(D-Arg)-OH] (H-[dY][dV][dD][dK][dR]-OH) as the compound, how does the half-life (Dog microsomal stability) read?
A: The half-life was greater than 60 min.

Q: And the “comparison with TP-5 in ALS patient derived cells” value [1]?
A: Its value is “superior to TP-5”.

Q: And the VEGFR2 expression ([1]; ALS patient derived cells)?
A: Its VEGFR2 expression is “normalizes”.

Q: What about the peroxides ([1]; ALS-ASC cells in vitro) of the same compound?
A: Its peroxides is “reduces”.

Q: And the “dysregulated mitochondrial energy metabolism” value ([1]; in vitro)?
A: Its value is “rescues”.

Q: And the “extracellular ATP (eATP)” value ([1]; in vitro cultured ASCs from an ALS patient)?
A: Its value is “decreased”.

Q: What about the “immunomodulation compared with Elamipretide triacetate” value [2] of the same compound?
A: Its value is “superior at immunomodulation”.

Q: What about the “target receptors compared with Elamipretide triacetate” value [2] of the same compound?
A: The value was “more target receptors”.

Q: And the half-life ([3]; IV, read-out: IV t½, mice)?
A: Its half-life is 6.22 min.

Q: And the bioavailability ([3]; PO, read-out: PO % F, mice)?
A: Its bioavailability is 30%.

Q: And the AUC(0-inf) ([3]; PO, read-out: PO AUCinf)?
A: Its AUC(0-inf) is 2400 ng·h/mL.

Q: And the Cmax ([3]; PO, read-out: PO Cmax)?
A: Its Cmax is 5290 ng/mL.

Q: And the half-life ([3]; PO, read-out: PO t½, mice)?
A: Its half-life is 7.36 min.

Q: And the bioavailability ([3]; SC, read-out: SC % F, mice)?
A: Its bioavailability is 52%.

Q: What about the AUC(0-inf) ([3]; SC, read-out: SC AUCinf) of the same compound?
A: Its AUC(0-inf) is 355 ng·h/mL.

Q: What about the Cmax ([3]; SC, read-out: SC Cmax) of the same compound?
A: The Cmax was 674 ng/mL.

Q: And the half-life ([3]; SC, read-out: SC t½, mice)?
A: Its half-life is 11.9 min.

Q: And the “expected impact of the oral drug on the central nervous system” value ([3]; oral, based on in vivo testing (Table 4))?
A: The value was 5%.

Q: What about the bioavailability [4] of the same compound?
A: The bioavailability was 4.9%.

Q: And the “effect of the peptide measured with SeaHorse analytics” value (ALS patient-derived ASCs)?
A: The value was “superior to the other compounds”.

Q: And the half-life (Mouse plasma stability)?
A: The half-life was greater than 120 min.

Q: And the “rescue against Erastin-induced cell death (viability)” value (A-375 melanoma cells; pre-incubated with peptide, treated with Erastin)?
A: The value was “did not rescue”.

Q: What about the “protection against Erastin-induced cell death (viability)” value (A-375 melanoma cells; pre-treated, incubated with peptide, followed by Erastin) of the same compound?
A: The value was “protected”.

Q: And the “effect on Erastin-induced cell death” value (A-375 non-target cells)?
A: The value was “no effect”.

Q: And the “effect on Erastin-induced cell death” value (A-375 (Prdx6 KO) cells)?
A: Its value is “no effect”.

Q: And the bioavailability ([5]; PO, read-out: % F (PO))?
A: The bioavailability was 6.7%.

Q: What about the bioavailability ([5]; SC, read-out: % F (SC)) of the same compound?
A: Its bioavailability is 79.2%.

Q: What about the “stability in mouse liver microsomes, half-life” value ([6]; mouse liver microsomes, listed as SEQ ID NO:1) of the same compound?
A: Its value is “greater than 120 minutes”.

Q: What about the half-life ([6]; mouse liver microsomes, read-out: stability in mouse liver microsomes, half-life) of the same compound?
A: Its half-life is greater than 120 min.

Q: What about the half-life ([6]; mouse microsomes, read-out: Mouse Microsomal Stability t½) of the same compound?
A: Its half-life is greater than 60 min.

Q: And the half-life (Rat microsomal stability)?
A: Its half-life is greater than 60 min.

Q: What about the “neuroprotection on the phrenic and femoral motor axon sizes” value ([7]; 3 mg/kg dose) of the same compound?
A: The value was “very discrete neuroprotection”.

Q: What about the “effect on the neuroinflammatory marker GFAP (spinal cord)” value ([7]; 3 mg/kg orally compared with 10 mg/kg orally) of the same compound?
A: The value was “more significant effects than 10 mg/kg orally”.

Q: And the “Femoral motor axon size” value ([7]; 3 mg/kg orally, SOD1^G93A hemizygous mice, vs vehicle/controls)?
A: The value was “axons of slightly larger size; also recorded: slightly larger femoral motor axons than vehicle treated mice”.

Q: What about the “Phrenic nerve cross-section area (phrenic axon size)” value ([7]; 10 mg/kg orally, SOD1^G93A hemizygous mice, vs vehicle/control) of the same compound?
A: Its value is “smallest axons; also recorded: smaller phrenic axons than vehicle treated mice”.

Q: What about the brain inflammation ([7]; oral administration, data not shown) of the same compound?
A: Its brain inflammation is “not impacted”.
